What was measured:
[1] = test system: HaCaT keratinocytes; test: SRB colorimetric assay, growth of HaCaT keratinocytes; assay type: cell-based, human; conditions: 10 ng/ml or 1,000 ng/ml, 72 hr, serum-free medium; FIGS. 7 and 8
Method: To analyze effects of peptides of this invention on proliferation of keratinocytes, SRB (Sulforhodamine B) colorimetric assay was carried out using HaCaT kerationcyte according to Rizzino et al method (Rizzino, et al. Cancer Res., 48:4266 (1988)). HaCaT ketatinocytes (The Korean Cell Line Bank) were cultured in 250 ml-flasks containing EMEM (Eagle's minimal essential media, Gibco, U.S.A.) supplemented with […] (fetal bovine serum). HaCaT ketatinocytes cultured were treated with 0.25% trypsin solution to detach cells from the bottom of culture flasks and centrifuged to collect cell pellets. Cells were resuspended in EMEM not containing FBS, its aliquot (4×10^3) cells was added to each well of 96-well plates and cultured under 7% CO2 for 24 hr at 37° C. After 24-hr culture, the medium was changed with a fresh medium not containing serum and cells were incubated with thymosin β-4 or the acetyl-octapeptide (10 ng/ml or 1,000 ng/ml) dissolved in 10% DMSO for 72 hr under the same conditions as described above. After removing supernatants, cells were washed once using PBS (phosphate buffered saline) and incubated with SRB solution (Sigma-Aldrich). Cells were washed with PBS and observed under a microscope to find cell viability. In addition, absorbance at 590 nm was measured to analyze cell proliferation (FIG. 7). […]

[2] = test system: C3H/HeN mice; test: Hair-growth activities in mice with hair removed; assay type: in vivo; conditions: Formulation Example 5 applied on back for 25 days, initial hair growth effects, hair length and number, FIG. 12
Excerpt: The hairs of the back portions of C3H/HeN mice were completely removed using a hair cutter and a hair loss-inducing substance. One day later, Formulation Example 5 (cosmetic liquid) was applied onto the back portions for 25 days and then hair growth was observed.

[3] = test system: hyaluronic acid; test: Hyaluronic acid level in HaCaT cell line (Hyaluronic acid ELISA kit); assay type: cell-based, human; conditions: HaCaT keratinocytes, 5 μmole; FIG. 10
Method: (§1) Furthermore, HaCaT cell line was treated with the acetyl-octapeptide of this invention (1 μg/ml) and the level of procollagen, one of indicators to show the improvement in skin wrinkle, was examined (FIG. 9). The level of procollagen was measured using Procollagen ELISA kit (Takara). For verifying effects on levels of hyaluronic acid, another indicator representing the improvement in skin wrinkle, HaCaT cell line was incubated with the acetyl-octapeptide of this invention (5 μmole) and the level of hyaluronic acid was measured using Hyaluronic acid ELISA kit (Echelon Biosciences Inc, USA) (FIG. 10).

[4] = test system: BALB/MK karatinocytes; test: [3H]-thymidine incorporation, measurement of biological activities; assay type: cell-based; conditions: FIG. 5; for biological activity compared with natural thymosin β-4: BALB/MK keratinocytes, thymidine incorporation
Method: The biological activities of the purified acetyl-octapetide of Example 2 were evaluated using BALB/MK karatinocytes according to Falco et al method to measure [^3H]-thymidine incorporation (Falco, et al. (1988) Oncogene., 2, 573). BALB/MK karatinocytes were cultured in 250 ml-flasks containing EMEM (Eagle's minimal essential media, Gibco, U.S.A.) supplemented with […] (fetal bovine serum). BALB/MK karatinocytes cultured were treated with 0.25% trypsin solution to detach cells from the bottom of culture flasks and centrifuged to collect cell pellets. Cells were resuspended in EMEM not containing FBS, its aliquot, 2×10^4 cells/0.3 ml medium was added to each well of 24-well plates and cultured under 7% CO2 for 24 hr at 37° C. 2 ng/ml of the acetyl octapeptide prepared in Example 2 was serially diluted by two-fold using EMEM containing 0.2 (w/v) % bovine serum albumin and 0.3 ml of the diluted peptide was added to each well, followed by additional culturing under 7% CO2 for 6 hr at 37° C. Afterwards, 0.5 μCi of [^3H]-thymidine (Amersham, TRK 686, 68 Ci/mmol) was added to each well and incubated overnight. After removing supernatants, cells were washed once using PBS (phosphate buffered saline) and incubated with 0.1 ml of 0.25% trypsin solution for 5 min at 37° C. to detach cells from the bottom of plates. 0.5 ml of EMEM containing 10% FBS was added to each well and cells were adhered to glass fiber filters using a cell harvester (12 well cell harvester, Millipore, U.S.A.). The filters were washed once with 1 ml of distilled water and once with 1 ml of ethanol, and kept to stand for 30 min at 60° C. for drying. The dried filters were added along with 2 ml of scintillation cocktail to scintillation vials and allowed to stand for 30 min at room temperature, after which radioactivity incorporated into cells was determined using a scintillation counter (Beckman, U.S.A) as shown in FIG. 5.

[5] = test system: procollagen; test: Procollagen level in HaCaT cell line (Procollagen ELISA kit); assay type: cell-based, human; conditions: HaCaT keratinocytes, 1 μg/ml; FIG. 9
Method: as §1

In the case of “Ac-Lys-Leu-Lys-Lys-Thr-Glu-Thr-Gln-OH (Ac-KLKKTETQ-OH) [acetyl octapeptide]”, the “cell viability / proliferation of HaCaT keratinocytes versus control” value [1] is reported as “much higher cell viability than control”, the “increase of hair growth compared with control” value [2] is reported as 25-30% and the “level of hyaluronic acid in cells” value [3] is reported as “increased in a dose-dependent manner”. For the same substance, the “[3H]-thymidine incorporation into keratinocytes” value ([4]; 2 ng/ml serially diluted two-fold) was “promotes thymidine incorporation into kerationcytes in a dose-dependent fashion”, the “biological activity compared with natural thymosin β-4” value [4] was “high biological activities similar to intact Tβ-4F” and the “biological activity compared with natural thymosin β-4” value ([4]; listed as present peptide) was “biological activities almost identical to natural-occurring Tβ4”. For the same substance, the “level of procollagen in cells” value [5] was “increased in a dose-dependent manner”.

From patent publication US8106017B2, “Peptides for promoting hair growth and improving wrinkle and cosmetic compositions comprising the same” (Caregen Co., Ltd., priority 2005, dated 2012)
